Source: patent publication US12077503B2, “Substituted cyclic amides and their use as herbicides” (FMC CORPORATION, priority 2015, dated 2024)

Assays:
Type in all cases: in vivo
[1] = tested on: ryegrass, Italian (Italian ryegrass, Lolium multiflorum); assay: Test A preemergence; conditions: Lolium multiflorum, pre-emergence, 240 h, 0 to 100 scale where 0 is no effect and 100 is complete control, read-out: Ryegrass, Italian plant response rating
Summary of the method: (§1)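 Each rating is a visual injury score from 0 to 100 given about 10 d after treatment, judged against untreated controls kept alongside in the greenhouse. In loam soil–sand blend, seeds got a preemergence directed soil spray, while postemergence plants were 2 to 10 cm tall at spraying.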

[2] = tested on: pigweed (Amaranthus retroflexus); assay: Test A preemergence; conditions: Amaranthus retroflexus, pre-emergence, 240 h, 0 to 100 scale where 0 is no effect and 100 is complete control, read-out: Pigweed plant response rating
[3] = tested on: barnyardgrass (Echinochloa crus-galli); assay: Test A preemergence; conditions: Echinochloa crus-galli, pre-emergence, 240 h, 0 to 100 scale where 0 is no effect and 100 is complete control, read-out: Barnyardgrass plant response rating
Summary of the method: as §1

[4] = tested on: Kochia (Kochia scoparia); assay: Test A preemergence; conditions: Bassia scoparia, pre-emergence, 240 h, 0 to 100 scale where 0 is no effect and 100 is complete control, read-out: Kochia plant response rating
Summary of the method: as §1

[5] = tested on: giant foxtail (Setaria faberii); assay: Test A preemergence; conditions: Setaria faberi, pre-emergence, 240 h, 0 to 100 scale where 0 is no effect and 100 is complete control, read-out: Foxtail, Giant plant response rating
Summary of the method: as §1

[6] = tested on: ragweed (common ragweed, Ambrosia elatior); assay: Test A preemergence; conditions: Ambrosia artemisiifolia, pre-emergence, 240 h, 0 to 100 scale where 0 is no effect and 100 is complete control, read-out: Ragweed plant response rating
Summary of the method: as §1

[7] = tested on: rice (Oryra sativa); assay: Test B flooded paddy test; conditions: Oryza sativa, 250 g ai/ha, Flood; 0 to 100 scale where 0 is no effect and 100 is complete control; read-out: Rice plant response rating
Summary of the method: (§2)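 Percent control, visually estimated after 13–15 d in the greenhouse on a 0–100 basis, compares treated pots with untreated ones; compound was put into paddy water 3 cm above the soil when plants had two leaves.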

[8] = tested on: sedge, umbrella (small-flower umbrella sedge, Cyperus difformis); assay: Test B flooded paddy test; conditions: Cyperus difformis, 250 g ai/ha, Flood; 0 to 100 scale where 0 is no effect and 100 is complete control; read-out: Sedge, Umbrella plant response rating
Summary of the method: as §2

[9] = tested on: ducksalad (Heteranthera limosa); assay: Test B flooded paddy test; conditions: Heteranthera limosa, 250 g ai/ha, Flood; 0 to 100 scale where 0 is no effect and 100 is complete control; read-out: Ducksalad plant response rating
Summary of the method: as §2

[10] = tested on: barnyardgrass (Echinochloa crus-galli); assay: Test B flooded paddy test; conditions: Echinochloa crus-galli, 250 g ai/ha, Flood; 0 to 100 scale where 0 is no effect and 100 is complete control; read-out: Barnyardgrass plant response rating
Summary of the method: as §2

[11] = tested on: Galium (catchweed bedstraw, Galium aparine); assay: Test A postemergence; conditions: Galium, post-emergence, 240 h, Postemergence, read-out: Galium plant response rating (0 to 100 scale)
Summary of the method: as §1

[12] = tested on: corn (Zea mays); assay: Test A postemergence; conditions: Zea mays, post-emergence, 240 h, Postemergence, read-out: Corn plant response rating (0 to 100 scale)
Summary of the method: as §1

[13] = tested on: ryegrass, Italian (Italian ryegrass, Lolium multiflorum); assay: Test A postemergence; conditions: Lolium multiflorum, post-emergence, 240 h, Postemergence, read-out: Ryegrass, Italian plant response rating (0 to 100 scale)
Summary of the method: as §1

[14] = tested on: blackgrass (Alopecurus myosuroides); assay: Test A postemergence; conditions: Alopecurus myosuroides, post-emergence, 240 h, Postemergence, read-out: Blackgrass plant response rating (0 to 100 scale)
Summary of the method: as §1

[15] = tested on: pigweed (Amaranthus retroflexus); assay: Test A postemergence; conditions: Amaranthus retroflexus, post-emergence, 240 h, Postemergence, read-out: Pigweed plant response rating (0 to 100 scale)
Summary of the method: as §1

[16] = tested on: wheat (Triticum aestivum); assay: Test A postemergence; conditions: Triticum aestivum, post-emergence, 240 h, Postemergence, read-out: Wheat plant response rating (0 to 100 scale)
Summary of the method: as §1

[17] = tested on: barnyardgrass (Echinochloa crus-galli); assay: Test A postemergence; conditions: Echinochloa crus-galli, post-emergence, 240 h, Postemergence
Summary of the method: as §1

[18] = tested on: Kochia (Kochia scoparia); assay: Test A postemergence; conditions: Bassia scoparia, post-emergence, 240 h, Postemergence, read-out: Kochia plant response rating (0 to 100 scale)
Summary of the method: as §1

[19] = tested on: giant foxtail (Setaria faberii); assay: Test A postemergence; conditions: Setaria faberi, post-emergence, 240 h, Postemergence, read-out: Foxtail, Giant plant response rating (0 to 100 scale)
Summary of the method: as §1

[20] = tested on: ragweed (common ragweed, Ambrosia elatior); assay: Test A postemergence; conditions: Ambrosia artemisiifolia, post-emergence, 240 h, Postemergence, read-out: Ragweed plant response rating (0 to 100 scale)
Summary of the method: as §1

[21] = 125 g ai/ha, preemergence, visual injury rating, approximately 10 d
[22] = 125 g ai/ha, visual rating about 10 d after treatment
[23] = 31 g ai/ha, 0 is no effect, 100 is complete control

Compound: CN1C[C@H](c2csc3c2CCC3)[C@@H](C(=O)Nc2ccccc2F)C1=O [Compound 1277]
- pest or weed control at 31 g/ha ([1]; 31 g ai/ha, Preemergence): 0%
- pest or weed control at 125 g/ha [1, 21]: 0%
- pest or weed control at 31 g/ha ([2]; 31 g ai/ha, Preemergence): 0%
- pest or weed control at 125 g/ha [2, 21]: 0%
- pest or weed control at 31 g/ha ([3]; 31 g ai/ha, Preemergence): 80%
- pest or weed control at 125 g/ha [3, 21]: 100%
- pest or weed control at 31 g/ha ([4]; 31 g ai/ha, Preemergence): 0%
- pest or weed control at 125 g/ha [4, 21]: 0%
- pest or weed control at 31 g/ha ([5]; 31 g ai/ha, Preemergence): 90%
- pest or weed control at 125 g/ha [5, 21]: 100%
- pest or weed control at 31 g/ha ([6]; 31 g ai/ha, Preemergence): 0%
- pest or weed control at 125 g/ha [6, 21]: 0%
- pest or weed control at 250 g/ha [7]: 25%
- pest or weed control at 250 g/ha [8]: 0%
- pest or weed control at 250 g/ha [9]: 60%
- pest or weed control at 250 g/ha [10]: 40%
- pest or weed control at 125 g/ha [11, 22]: 0%
- pest or weed control at 31 g/ha [11, 23]: 0%
- plant injury at 125 g/ha [12, 22]: 0%
- plant injury at 31 g/ha [12, 23]: 0%
- pest or weed control at 125 g/ha [13, 22]: 0%
- pest or weed control at 31 g/ha [13, 23]: 0%
- pest or weed control at 125 g/ha [14, 22]: 0%
- pest or weed control at 31 g/ha [14, 23]: 0%
- pest or weed control at 125 g/ha [15, 22]: 0%
- pest or weed control at 31 g/ha [15, 23]: 0%
- plant injury at 125 g/ha [16, 22]: 0%
- plant injury at 31 g/ha [16, 23]: 0%
- pest or weed control at 125 g/ha ([17]; 125 g ai/ha, visual rating about 10 d after treatment, read-out: Barnyardgrass plant response rating (0 to 100 scale, 0 no effect, 100 complete control)): 80%
- pest or weed control at 31 g/ha ([17]; 31 g ai/ha, 0 is no effect, 100 is complete control, read-out: Barnyardgrass plant response rating (0 to 100 scale)): 30%
- pest or weed control at 125 g/ha [18, 22]: 0%
- pest or weed control at 31 g/ha [18, 23]: 0%
- pest or weed control at 125 g/ha [19, 22]: 70%
- pest or weed control at 31 g/ha [19, 23]: 50%
- pest or weed control at 125 g/ha [20, 22]: 30%
- pest or weed control at 31 g/ha [20, 23]: 30%
